Patent US20170253607A1, “LONG-ACTING HIV PROTEASE INHIBITOR” (Shionogi & Co., Ltd., priority 2014, published 2017)

Molecular target: HIV-1 PR (Human immunodeficiency virus type 1 group M subtype B, UniProt P04585)
Test: HIV-protease inhibitory activity assay (FRET peptide substrate)
Assay type: biochemical
Details: Test Example 1
Method: Test Example 1: HIV-Protease Inhibitory Activity Assay
The HIV-1 PR assay was performed by using a FRET (Fluorescence Resonance Energy Transfer) peptide substrate (AnaSpec, Inc., Fremont, Calif.). Initially in the intact FRET peptide, the fluorescence of HiLyte Fluor 488 is quenched by QXL 520. Upon substrate cleavage by PR, the fluorescence is recovered and can be monitored. Test compounds diluted in DMSO was plated to the wells of 384-well plate. Then, mixed with assay buffer (0.1 mol/L NaAc containing 0.5 mol/L NaCl, 1 mmol/L EDTA, 1 mmol/L DTT, and 0.05% Tween 20, pH 4.8) in the presence or absence of HIV-1 PR (0.83 ng), and let it stand for 5 minutes at room temperature. Background fluorescence intensity was measured and let it stand for another 15 minutes at room temperature. The enzyme reaction was started by adding substrate diluted in assay buffer at final concentration of 2 μmol/L, and let it stand for 60 minutes at room temperature. After 60 minutes, the fluorescence intensity was measured. Fluorescence intensity was measured with excitation and emission wavelengths of 485 nm and 535 nm, respectively.
IC50 values were determined using non-linear regression four-parameter logistic equation, y=A+((B−A)/(1+((C/x)̂D))) where A=minimum inhibition, B=maximum inhibition, C=log IC50, D=slope factor, x=concentration of compound and y=% inhibition.

COc1ccc(S(=O)(=O)N(CC(C)C)C[C@@H](O)[C@H](Cc2ccc(OCc3ccccc3-c3sc(-c4ccccc4)nc3C(=O)O)cc2)NC(=O)O[C@H]2CO[C@H]3OCC[C@H]32)cc1 [Compound I-3] and COc1ccc(S(=O)(=O)N(CC(C)C)CC(O)C(Cc2ccc(OCc3ccccc3-c3sc4c(c3C(=O)O)CC(F)(F)CC4)cc2)NC(=O)OC2COC3(C)OCCC23)cc1 (centres unmarked) [Compound I-54] are within 1.5-fold of each other in IC50: 1.02 nM for the first, 1.24 nM for the second.

COc1ccc(S(=O)(=O)N(CC(C)C)C[C@@H](O)[C@H](Cc2ccc(COc3ccccc3-c3sc4c(c3C(=O)O)CC(C)(C)CC4)cc2)NC(=O)O[C@H]2CO[C@@]3(C)OCC[C@@H]23)cc1 [Compound I-4] and CC(C)CN(CC(O)C(Cc1ccc(OCc2ccccc2-c2sc3c(c2C(=O)O)CC(C)(C)CC3)cc1)NC(=O)OC1COC2(C)OCCC12)S(=O)(=O)c1ccc(N)cc1 (centres unmarked) [Compound I-52] are within 1.5-fold of each other in IC50: 1.69 nM for the first, 2.34 nM for the second.

COc1ccc(S(=O)(=O)N(CC(C)C)C[C@@H](O)[C@H](Cc2ccc(OCc3sc4ccccc4c3C(=O)O)cc2)NC(=O)O[C@H]2CO[C@@]3(C)OCC[C@@H]23)cc1 [Compound I-5] and COc1ccc(S(=O)(=O)N(CC(C)C)CC(O)C(Cc2ccc(OCc3ccccc3-c3c(C(=O)O)c4c(n3C)CCCC4)cc2)NC(=O)OC2COC3(C)OCCC23)cc1 (centres unmarked) [Compound I-50] are within 1.5-fold of each other in IC50: 1.15 nM for the first, 1.13 nM for the second.

COc1ccc(S(=O)(=O)N(CC(C)C)C[C@@H](O)[C@H](Cc2ccc(C#Cc3sc4c(c3C(=O)O)CC(C)(C)CC4)cc2)NC(=O)O[C@H]2CO[C@@]3(C)OCC[C@@H]23)cc1 [Compound I-11] and COc1ccc(S(=O)(=O)N(CC(C)C)CC(O)C(Cc2ccc(-c3sc4c(c3C(=O)O)CC(C)(C)CC4)cc2)NC(=O)OC2COC3(C)OCCC23)cc1 (centres unmarked) [Compound I-41] are within 1.5-fold of each other in IC50: 1.4 nM for the first, 1.11 nM for the second.

COc1ccc(S(=O)(=O)N(CC(C)C)C[C@@H](O)[C@H](Cc2ccc(NCc3sc4c(c3C(=O)O)CC(C)(C)CC4)cc2)NC(=O)O[C@H]2CO[C@@]3(C)OCC[C@@H]23)cc1 [Compound I-14] and COc1ccc(S(=O)(=O)N(CC(C)C)CC(O)C(Cc2ccc(N(C)Cc3sc4c(c3C(=O)O)CC(C)(C)CC4)cc2)NC(=O)OC2COC3(C)OCCC23)cc1 (centres unmarked) [Compound I-46] are within 1.5-fold of each other in IC50: 1.7 nM for the first, 1.86 nM for the second.

First: CC(C)CN(C[C@@H](O)[C@H](Cc1ccc(OCc2ccccc2-c2sc3c(c2C(=O)O)CC(C)(C)CC3)cc1)NC(=O)O[C@H]1CO[C@@]2(C)OCC[C@@H]12)S(=O)(=O)c1ccc(N)c(/C=C/C(N)=O)c1 [Compound I-16]
Second: CC(C)CN(C[C@@H](O)[C@H](Cc1ccc(OCc2ccccc2-c2sc3c(c2C(=O)O)CC(C)(C)CC3)cc1)NC(=O)O[C@H]1CO[C@@]2(C)OCC[C@@H]12)S(=O)(=O)c1ccc(N)c(CCC(N)=O)c1 [Compound I-17]
The IC50 of the first is 1.8-fold higher: 2.22 nM for the first, 1.24 nM for the second.

CC(C)CN(C[C@@H](O)[C@H](Cc1ccc(OCc2ccc(-c3ccc(F)cc3F)cc2C(=O)O)cc1)NC(=O)O[C@H]1CO[C@@]2(C)OCC[C@@H]12)S(=O)(=O)c1ccc2ncsc2c1 [Compound I-18] and CC(C)CN(CC(O)C(Cc1ccc(OCc2cc(-c3ccc(F)cc3F)ccc2C(=O)O)cc1)NC(=O)OC1COC2(C)OCCC12)S(=O)(=O)c1ccc2ncsc2c1 (centres unmarked) [Compound I-61] are within 1.5-fold of each other in IC50: 1.63 nM for the first, 1.9 nM for the second.

Compared with COc1ccc(S(=O)(=O)N(CC(C)C)C[C@@H](O)[C@H](Cc2ccc(OCc3ccccc3-c3sc4c(c3C(N)=O)CC(C)(C)CC4)cc2)NC(=O)O[C@H]2CO[C@@]3(C)OCC[C@@H]23)cc1 [Compound I-20], COc1ccc(S(=O)(=O)N(CC(C)C)CC(O)C(Cc2ccc(OCc3ccccc3-c3sc4c(c3C(=O)NS(=O)(=O)C3CC3)CC(C)(C)CC4)cc2)NC(=O)OC2COC3(C)OCCC23)cc1 (centres unmarked) [Compound I-58] is 1.6-fold lower in IC50: 1.77 nM for the first, 1.11 nM for the second.

COc1ccc(S(=O)(=O)N(CC(C)C)C[C@@H](O)[C@H](Cc2ccc(OCc3ccc(-c4ccc(F)cc4F)cc3-c3noc(=O)[nH]3)cc2)NC(=O)O[C@H]2CO[C@@]3(C)OCC[C@@H]23)cc1 [Compound I-21] and COc1ccc(S(=O)(=O)N(CC(C)C)C[C@@H](O)[C@H](Cc2ccc(OCc3ccc(-c4ccc(F)cc4F)cc3-c3nnn[nH]3)cc2)NC(=O)O[C@H]2CO[C@@]3(C)OCC[C@@H]23)cc1 [Compound I-22] are within 1.5-fold of each other in IC50: 1.39 nM for the first, 0.99 nM for the second.

COc1ccc(S(=O)(=O)N(CC(C)C)C[C@@H](O)[C@H](Cc2ccc(OCc3ccc(-c4ccc(F)cc4F)cc3C(=O)NC(N)=O)cc2)NC(=O)O[C@H]2CO[C@@]3(C)OCC[C@@H]23)cc1 [Compound I-24] and COc1ccc(S(=O)(=O)N(CC(C)C)C[C@@H](O)[C@H](Cc2ccc(OCc3ccc(-c4ccc(F)cc4F)cc3C(=O)NC(=O)NC(C)(C)C)cc2)NC(=O)O[C@H]2CO[C@@]3(C)OCC[C@@H]23)cc1 [Compound I-25] are within 1.5-fold of each other in IC50: 1.39 nM for the first, 2.07 nM for the second.

Compared with CC(C)CN(C[C@@H](O)[C@H](Cc1ccccc1)NC(=O)O[C@H]1CO[C@@]2(C)OCC[C@@H]12)S(=O)(=O)c1ccc2nc(NCc3sc4c(c3C(=O)O)CC(C)(C)CC4)sc2c1 [Compound I-26], CC(C)CN(C[C@@H](O)[C@H](Cc1ccccc1)NC(=O)O[C@H]1CO[C@@]2(C)OCC[C@@H]12)S(=O)(=O)c1ccc2nc(NCCCCOc3ccc(-c4sc5c(c4C(=O)O)CC(C)(C)CC5)cc3)sc2c1 [Compound I-27] is 1.8-fold higher in IC50: 2.01 nM for the first, 3.7 nM for the second.

COc1ccc(S(=O)(=O)N(CC(C)C)C[C@@H](O)[C@H](Cc2ccc(OCc3ccccc3-c3sc4c(c3C(=O)O)CC(C)(C)CC4)cc2)NC(=O)O[C@@H]2C[C@@H]3[C@@H](OC(C)=O)CO[C@@H]3C2)cc1 [Compound I-28] and COc1ccc(S(=O)(=O)N(CC(C)C)CC(O)C(Cc2ccc(OCc3ccccc3-c3sc4c(c3C(=O)O)CC(C)(C)CC4)cc2)NC(=O)OC2COC3(C)OCC(O)C23)cc1 (centres unmarked) [Compound I-56] are within 1.5-fold of each other in IC50: 1.63 nM for the first, 1.21 nM for the second.

Going from COc1ccc(S(=O)(=O)N(CC(C)C)C[C@@H](O)[C@H](Cc2ccccc2)NC(=O)O[C@H]2CO[C@@]3(CNC(=O)/C=C/c4sc5c(c4C(=O)O)CC(C)(C)CC5)OCC[C@@H]23)cc1 [Compound I-31] to COc1ccc(S(=O)(=O)N(CC(C)C)C[C@@H](O)[C@H](Cc2ccccc2)NC(=O)O[C@H]2CO[C@@]3(CNC(=O)OCCCc4sc5c(c4C(=O)O)CC(C)(C)CC5)OCC[C@@H]23)cc1 [Compound I-34], the IC50 rises from 0.73 nM to 1.28 nM (1.8-fold). The first is the more potent here.

CC1(C)CCc2sc(-c3ccc(CNC(=O)OC[C@]45OCC[C@H]4[C@@H](OC(=O)N[C@@H](Cc4ccccc4)[C@H](O)CN(CC(F)F)S(=O)(=O)c4ccc6ncsc6c4)CO5)cc3)c(C(=O)O)c2C1 [Compound I-32] and CC1(C)CCc2sc(-c3cccc(CCCN(C[C@@H](O)[C@H](Cc4ccccc4)NC(=O)O[C@H]4CO[C@@]5(C)OCC[C@@H]45)S(=O)(=O)c4ccc5ncsc5c4)c3)c(C(=O)O)c2C1 [Compound I-36] are within 1.5-fold of each other in IC50: 1.37 nM for the first, 1.88 nM for the second.

Compared with COc1ccc(S(=O)(=O)N(CC(C)C)CC(O)C(Cc2ccc(NCc3ccccc3-n3nc4c(c3C(=O)O)CC3(CCCC3)CC4)cc2)NC(=O)OC2COC3(C)OCCC23)cc1 (centres unmarked) [Compound I-38], COc1ccc(S(=O)(=O)N(CC(C)C)CC(O)C(Cc2ccc(OCc3ccccc3-n3nc4c(c3C(=O)O)CC3(CCCC3)CC4)cc2)NC(=O)OC2COC3(C)OCCC23)cc1 (centres unmarked) [Compound I-53] is 4.6-fold lower in IC50: 3.85 nM for the first, 0.83 nM for the second.

Going from COc1ccc(S(=O)(=O)N(CC(C)C)CC(O)C(Cc2ccc(OCc3ccccc3-c3ccc4c(c3C(=O)O)CC(C)(C)CC4)cc2)NC(=O)OC2COC3(C)OCCC23)cc1 (centres unmarked) [Compound I-40] to COc1ccc(S(=O)(=O)N(CC(C)C)CC(O)C(Cc2ccc(OCc3ccccc3NC(=O)c3cc(Cl)cc(Cl)c3O)cc2)NC(=O)OC2COC3(C)OCCC23)cc1 (centres unmarked) [Compound I-69], the IC50 falls from 1.9 nM to 1.17 nM (1.6-fold). The second is the more potent here.

Compared with COc1ccc(S(=O)(=O)N(CC(C)C)CC(O)C(Cc2ccc(N(Cc3ccccc3-c3sc4c(c3C(=O)O)CC(C)(C)CC4)CC3CCCCC3)cc2)NC(=O)OC2COC3(C)OCCC23)cc1 (centres unmarked) [Compound I-42], COc1ccc(S(=O)(=O)N(CC(C)C)CC(O)C(Cc2ccc(COc3ccc(-c4ccc(F)cc4F)cc3C(=O)O)cc2)NC(=O)OC2COC3(C)OCCC23)cc1 (centres unmarked) [Compound I-63] is 26-fold lower in IC50: 23.4 nM for the first, 0.89 nM for the second.

COc1ccc(S(=O)(=O)N(CC(C)C)CC(O)C(Cc2ccc(OC(C)(C)C(=O)NS(=O)(=O)c3cccc(-c4ccc(F)cc4F)c3)cc2)NC(=O)OC2COC3(C)OCCC23)cc1 (centres unmarked) [Compound I-57] and CC(C)CN(CC(O)C(Cc1ccc(Oc2ccc(-c3ccc(F)cc3F)cc2C(=O)O)cc1)NC(=O)OC1COC2(C)OCCC12)S(=O)(=O)c1ccc2ncsc2c1 (centres unmarked) [Compound I-59] are within 1.5-fold of each other in IC50: 1.07 nM for the first, 1.19 nM for the second.

First: CC(C)CN(CC(O)C(Cc1ccc(OCc2cc(C(=O)O)cc(-c3ccc(F)cc3F)c2)cc1)NC(=O)OC1COC2(C)OCCC12)S(=O)(=O)c1ccc2ncsc2c1 (centres unmarked) [Compound I-60]
Second: CC(C)CN(CC(O)C(Cc1ccc(OCc2cc(-c3ccc(F)cc3F)ccc2C(N)=O)cc1)NC(=O)OC1COC2(C)OCCC12)S(=O)(=O)c1ccc2ncsc2c1 (centres unmarked) [Compound I-62]
The IC50 of the first is 2-fold higher: 1.6 nM for the first, 0.82 nM for the second. The second is the more potent here.

CC(C)CN(CC(O)C(Cc1ccc(OCc2ccccc2-c2ccccc2C(=O)O)cc1)NC(=O)OC1COC2(C)OCCC12)S(=O)(=O)c1ccc2ncsc2c1 (centres unmarked) [Compound I-64] and COc1ccc(S(=O)(=O)N(CC(C)C)CC(O)C(Cc2ccc(OCCNC(=O)c3cc(Cl)cc(Cl)c3O)cc2)NC(=O)OC2COC3(C)OCCC23)cc1 (centres unmarked) [Compound I-68] are within 1.5-fold of each other in IC50: 1.3 nM for the first, 1.83 nM for the second.

COc1ccc(S(=O)(=O)N(CC(C)C)CC(O)C(Cc2ccc(OCCNC(=O)C(=NO)c3cc(O)cc(Cl)c3)cc2)NC(=O)OC2COC3(C)OCCC23)cc1 (centres unmarked) [Compound I-67] was tested, and the IC50 was 1.88 nM.
